In US11633394B2, “Substituted alkynylene compounds as anticancer agents” (Aurigene Oncology Limited, priority 2018, dated 2023):

Key:
[1] = test system: NCI-H1792 cells; test: Anti proliferative activity in NCI-H1792 cells by XTT assay; type: cell-based; conditions: H1792 cell line; for IC50: 72 hours incubation; for viability at 30 µM / % Viability (at 30 μM): 72 hours
Protocol: Example 78: Determination of Anti Proliferative Activity in NCI-H1792 Cells by XTT Assay
NCI-H1792 cells (ATCC CRL-5895) were plated at 2000 cells/well in 96 well flat clear bottom plates (Corning, Cat. No 3596) using complete RPMI media. After 24 hours, compounds of present invention were added to cells from 20 mM stocks made in DMSO (Sigma Cat no. D2650). Each concentration of compound was tested in triplicate with DMSO concentration not exceeding a final percentage of 0.3 in the cells. After 72 hours of incubation in CO2 incubator, XTT (Invitrogen, Cat. no X6493) was added to the wells. XTT was dissolved in serum free media at 1 mg/ml and absorbance readings were taken in spectrophotometer at 465 nm. The data was analysed using graph pad prism software. Positive control (100% survival)=Cells in complete media with 0.3% DMSO; Negative control/blank (0% survival)=Media alone containing 0.3% DMSO.
(§1) The compounds of the present invention were screened in the above mentioned assay and the results are tabulated below.

[2] = test system: NCI-H2122 cells; test: Anti proliferative activity in NCI-H2122 cells by XTT assay; type: cell-based; conditions: H2122 cell line; for IC50: 8 days (192 hour) incubation; for viability at 30 µM: 8 days
Protocol: Example 79: Determination of Anti Proliferative Activity in NCI-H2122 Cells by XTT Assay
NCI-H2122 cells (ATCC CRL-5985) were plated at 1000 cells/well in 96 well flat clear bottom plates (Corning, Cat. No 3596) using complete RPMI-1640 media. After 24 hours, compounds of present invention were added to cells from 10 mM stocks made in DMSO (Sigma Cat no. D2650). Each concentration of compound was tested in triplicate with DMSO concentration not exceeding a final percentage of 0.3 in the cells. Complete RPMI-1640 media changed at Day 3 (72 hour) and Day 6 (144 hour) along with compounds of current invention. After 8 days (192 hour) of incubation assay terminated using 50 μl of XTT reagent (Invitrogen, Cat. no X6493). XTT reagent was made by dissolving 1 mg/mi XTT in serum free media with addition of 25 μM Phenazine methosulfate (sigma Cat. no P9625). Absorbance readings were taken in spectrophotometer at 465 nm. The data was analysed using graph pad prism software. Positive control (100% survival)=Cells in complete media with 0.3% DMSO; Negative control/blank (0% survival)=Media alone containing 0.3% DMSO.
as §1

Row | Structure (SMILES) | IC50 ([1]; Homo sapiens, NCI-H1792, 72 h) | viability at 30 µM ([1]; Homo sapiens, NCI-H1792, 72 h) | also measured
1 | C=CC(=O)N1CCN(C(=O)NC(C)C#Cc2ccc(Cl)c(Cl)c2)CC1 (racemic) [Example 1, 4-acryloyl-N-(4-(3,4-dichlorophenyl)but-3-yn-2-yl) piperazine-1-carboxamide] | < 10 µM | 40% | 
2 | C=CC(=O)N1CCN(C(=O)NC(C#Cc2ccc(Cl)c(Cl)c2)CC)CC1 (racemic) [Example 2, 4-acryloyl-N-(1-(3,4-dichlorophenyl)pent-1-yn-3-yl)piperazine-1-carboxamide] | < 10 µM | 22% | 
3 | C=CC(=O)N1CCN(C(=O)NC(C)C#Cc2ccc(Cl)c(NC(C)=O)c2)CC1 (racemic) [Example 40, N-(4-(3-acetamido-4-chlorophenyl)but-3-yn-2-yl)-4-acryloylpiperazine-1-carboxamide] |  |  | IC50 ([2]; Homo sapiens, NCI-H2122, 192 h): 10 to 25 µM
4 | C=C(C)C(=O)N1CCN(C(=O)NC(C)C#Cc2ccc(Cl)c(Cl)c2)CC1 (racemic) [Example 43, N-(4-(3,4-dichlorophenyl)but-3-yn-2-yl)-4-methacryloylpiperazine-1-carboxamide] |  |  | IC50 ([2]; Homo sapiens, NCI-H2122, 192 h): > 25 µM; viability at 30 µM ([2]; Homo sapiens, NCI-H2122, 192 h): 78%
5 | CC(C#Cc1ccc(Cl)c(Cl)c1)NC(=O)N1CCN(C(=O)C2(C#N)CC2)CC1 (racemic) [Example 44, 4-(1-cyanocyclopropane-1-carbonyl)-N-(4-(3,4-dichlorophenyl)but-3-yn-2-yl) piperazine-1-carboxamide] |  |  | IC50 ([2]; Homo sapiens, NCI-H2122, 192 h): > 25 µM; viability at 30 µM ([2]; Homo sapiens, NCI-H2122, 192 h): 99%
6 | CC(C#Cc1ccc(Cl)c(Cl)c1)NC(=O)N1CCN(C(=O)/C=C/CN(C)C)CC1 (racemic) [Example 47, (E)-N-(4-(3,4-dichlorophenyl)but-3-yn-2-yl)-4-(4-(dimethylamino)but-2-enoyl) piperazine-1-carboxamide] | < 10 µM | 26% | 
7 | C=CS(=O)(=O)NC1CCN(C(=O)NC(C)C#Cc2ccc(Cl)c(Cl)c2)CC1 (racemic) [Example 49, N-(4-(3,4-dichlorophenyl)but-3-yn-2-yl)-4-(vinylsulfonamido) piperidine-1-carboxamide] | 10 to 25 µM | 35% | 
8 | CC(C#Cc1ccc(Cl)c(Cl)c1)NC(=O)N1CCN(C(=O)/C=C/C(N)=O)CC1 (racemic) [Example 65, (E)-4-(4-amino-4-oxobut-2-enoyl)-N-(4-(3,4-dichlorophenyl)but-3-yn-2-yl) piperazine-1-carboxamide] | > 25 µM | 73% | 
9 | C=CC(=O)N1CCN(C(=S)NC(C)C#Cc2ccc(Cl)c(Cl)c2)CC1 (racemic) [Example 69, 4-Acryloyl-N-(4-(3,4-dichlorophenyl)but-3-yn-2-yl) piperazine-1-carbothioamide] | 10 to 25 µM | 18% | 
10 | C=CS(=O)(=O)N[C@H]1CC[C@H](C(=O)NC(C)C#Cc2ccc(Cl)c(Cl)c2)CC1 (mixture of isomers) [Example 75, (1r,4r)-N-(4-(3,4-dichlorophenyl)but-3-yn-2-yl)-4-(vinylsulfonamido) cyclohexane-1-carboxamide] | < 10 µM | 10% | 
11 | C=CC(=O)Nc1ccc(C(=O)NC(C)C#Cc2ccc(Cl)c(Cl)c2)cc1 (racemic) [Example 76, 4-acrylamido-N-(4-(3,4-dichlorophenyl)but-3-yn-2-yl)benzamide] | < 10 µM | 26% | 
12 | CC(C#Cc1ccc(Cl)c(Cl)c1)NC(=O)N1CCN(C(=O)C2CC(Br)=NO2)CC1 (racemic) [Example 77, 4-(3-bromo-4,5-dihydroisoxazole-5-carbonyl)-N-(4-(3,4-dichlorophenyl)but-3-yn-2-yl)piperazine-1-carboxamide(±)] |  |  | IC50 ([2]; Homo sapiens, NCI-H2122, 192 h): 10 to 25 µM
13 | C=CC(=O)N1CCN(C(=O)NC(C)C#Cc2ccc(Cl)c(Cl)c2)CC1 (single isomer, unassigned) [Example 1b, 4-acryloyl-N-(4-(3,4-dichlorophenyl)but-3-yn-2-yl) piperazine-1-carboxamide] |  |  | IC50 [1]: 10 to 25 µM; % Viability (at 30 μM) [1]: 37%
14 | C=CC(=O)N1CCN(C(=O)NC(C#Cc2ccc(Cl)c(Cl)c2)CC)CC1 (single isomer, unassigned) [Example 2a] |  |  | IC50 [1]: > 25 µM; % Viability (at 30 μM) [1]: 56%
15 | C=CC(=O)N1CCN(C(=O)NC(C#Cc2ccc(Cl)c(Cl)c2)CC)CC1 (single isomer, unassigned) [Example 2b] |  | 57% | IC50 [1]: 10 to 25 µM
16 | C=CC(=O)N(C)[C@@H]1CCCC[C@H]1N(C)C(=O)NC(C)C#Cc1ccc(Cl)c(Cl)c1 (single isomer, unassigned) [Example 48a] |  |  | IC50 [2]: > 25 µM
17 | C=CC(=O)N(C)[C@@H]1CCCC[C@H]1N(C)C(=O)NC(C)C#Cc1ccc(Cl)c(Cl)c1 (single isomer, unassigned) [Example 48b] |  |  | IC50 [2]: 10 to 25 µM
18 | C=CC(=O)N1CCN(C(=O)NC(C#Cc2ccc(Cl)c(Cl)c2)C(C)C)CC1 (centres unmarked) [Example 4] | 10 to 25 µM | 15% | 
19 | C=CC(=O)N1CCN(C(=O)NC(C)C#Cc2ccc(C(F)(F)F)c(Cl)c2)CC1 (centres unmarked) [Example 6] | 10 to 25 µM | 19% | 
20 | C=CC(=O)N1CCN(C(=O)NC(C)C#Cc2ccc(C)c(Cl)c2)CC1 (centres unmarked) [Example 7] | 10 to 25 µM | 33% | 
21 | C=CC(=O)N1CC(N2CCN(C(=O)NC(C)C#Cc3ccc(Cl)c(Cl)c3)CC2)C1 (centres unmarked) [Example 8] | < 10 µM | 35% | 
